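Tested at 5 concentrations; 48 h exposure; 96-well plates; endpoints linearly interpolated, else capped at highest concentration. The concentration for full growth arrest is given as TGI.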
Assays:
Assay in all cases: NCI tumour cell line growth inhibition, 48 h
UO-31 renal = test system: UO-31 renal
COLO 205 colon = test system: COLO 205 colon
NCI-H522 lung = test system: NCI-H522 lung
SN12C renal = test system: SN12C renal
U251 CNS = test system: U251 CNS
SNB-19 CNS = test system: SNB-19 CNS
SF-268 CNS = test system: SF-268 CNS
KM20L2 colon = test system: KM20L2 colon
LXFL 529 NSCLC = test system: LXFL 529 NSCLC
SW-620 colon = test system: SW-620 colon
786-0 renal = test system: 786-0 renal
HOP-18 NSCLC = test system: HOP-18 NSCLC
CAKI-1 renal = test system: CAKI-1 renal
SF-295 CNS = test system: SF-295 CNS
OVCAR-4 ovarian = test system: OVCAR-4 ovarian
UACC-62 melanoma = test system: UACC-62 melanoma
HL-60(TB) leukemia = test system: HL-60(TB) leukemia
DMS 114 small cell lung = test system: DMS 114 small cell lung
KM12 colon = test system: KM12 colon
SNB-78 CNS = test system: SNB-78 CNS
TK-10 renal = test system: TK-10 renal
A549 NSCLC = test system: A549 NSCLC
K-562 leukemia = test system: K-562 leukemia
MOLT-4 leukemia = test system: MOLT-4 leukemia
IGROV1 ovarian = test system: IGROV1 ovarian
UACC-257 melanoma = test system: UACC-257 melanoma
DMS 273 small cell lung = test system: DMS 273 small cell lung
M14 melanoma = test system: M14 melanoma
EKVX NSCLC = test system: EKVX NSCLC
RXF 393 renal = test system: RXF 393 renal
MALME-3M melanoma = test system: MALME-3M melanoma
LOX IMVI melanoma = test system: LOX IMVI melanoma
RXF-631 renal = test system: RXF-631 renal
HOP-62 NSCLC = test system: HOP-62 NSCLC
HOP-92 NSCLC = test system: HOP-92 NSCLC
SF-539 CNS = test system: SF-539 CNS
DLD-1 colon = test system: DLD-1 colon
NCI-H460 lung = test system: NCI-H460 lung
SK-MEL-28 melanoma = test system: SK-MEL-28 melanoma
CCRF-CEM leukemia = test system: CCRF-CEM leukemia
SNB-75 CNS = test system: SNB-75 CNS
OVCAR-8 ovarian = test system: OVCAR-8 ovarian
NCI-H226 lung = test system: NCI-H226 lung
M19-MEL melanoma = test system: M19-MEL melanoma
HCT-116 colon = test system: HCT-116 colon
A498 renal = test system: A498 renal
OVCAR-5 ovarian = test system: OVCAR-5 ovarian
HT29 colon = test system: HT29 colon
SK-MEL-5 melanoma = test system: SK-MEL-5 melanoma
ACHN renal = test system: ACHN renal
RPMI-8226 leukemia = test system: RPMI-8226 leukemia
OVCAR-3 ovarian = test system: OVCAR-3 ovarian
HCT-15 colon = test system: HCT-15 colon

Compound: CCN(CC)CCOC(=O)/C(=C/c1ccc(OC)cc1)c1cc(OC)c(OC)c(OC)c1
- TGI (UO-31 renal): 31.9 µM
- TGI (COLO 205 colon): 18.9 µM
- TGI (NCI-H522 lung): 9.32 µM
- TGI (SN12C renal): 57.5 µM
- TGI (U251 CNS): 25.5 µM
- TGI (SNB-19 CNS): 80.6 µM
- TGI (SF-268 CNS): > 100 µM
- TGI (KM20L2 colon): 24.6 µM
- TGI (LXFL 529 NSCLC): 23.1 µM
- TGI (SW-620 colon): > 100 µM
- TGI (786-0 renal): 98.8 µM
- TGI (HOP-18 NSCLC): > 100 µM
- TGI (CAKI-1 renal): 38 µM
- TGI (SF-295 CNS): 6.3 µM
- TGI (OVCAR-4 ovarian): > 100 µM
- TGI (UACC-62 melanoma): 24.1 µM
- TGI (HL-60(TB) leukemia): 16.4 µM
- TGI (DMS 114 small cell lung): 22.2 µM
- TGI (KM12 colon): 16 µM
- TGI (SNB-78 CNS): > 100 µM
- TGI (TK-10 renal): > 100 µM
- TGI (A549 NSCLC): > 100 µM
- TGI (K-562 leukemia): 27.9 µM
- TGI (MOLT-4 leukemia): > 100 µM
- TGI (IGROV1 ovarian): > 100 µM
- TGI (UACC-257 melanoma): 19.3 µM
- TGI (DMS 273 small cell lung): 23.4 µM
- TGI (M14 melanoma): 19.9 µM
- TGI (EKVX NSCLC): > 100 µM
- TGI (RXF 393 renal): 5 µM
- TGI (MALME-3M melanoma): 34.1 µM
- TGI (LOX IMVI melanoma): 18.6 µM
- TGI (RXF-631 renal): > 100 µM
- TGI (HOP-62 NSCLC): 31.7 µM
- TGI (HOP-92 NSCLC): 54.1 µM
- TGI (SF-539 CNS): 10.8 µM
- TGI (DLD-1 colon): > 100 µM
- TGI (NCI-H460 lung): 51.2 µM
- TGI (SK-MEL-28 melanoma): > 100 µM
- TGI (CCRF-CEM leukemia): > 100 µM
- TGI (SNB-75 CNS): 11.6 µM
- TGI (OVCAR-8 ovarian): 74.2 µM
- TGI (NCI-H226 lung): 54.5 µM
- TGI (M19-MEL melanoma): > 100 µM
- TGI (HCT-116 colon): > 100 µM
- TGI (A498 renal): 8.64 µM
- TGI (OVCAR-5 ovarian): 43.7 µM
- TGI (HT29 colon): 18 µM
- TGI (SK-MEL-5 melanoma): 11.4 µM
- TGI (ACHN renal): > 100 µM
- TGI (RPMI-8226 leukemia): 52.5 µM
- TGI (OVCAR-3 ovarian): 64.3 µM
- TGI (HCT-15 colon): > 100 µM

Reference: PubChem BioAssay (NCI)
